Experimental data as given in ChEMBL document CHEMBL4400517, “Marine natural products as potential anti-tubercular agents” (Eur J Med Chem, 2019).
pIC50: −log10 of the molar value. ≈ marks a conversion by molar mass, not a printed value.

Columns and labels:
[1] = tested on: Mycolicibacterium smegmatis; assay: Antimycobacterial activity against Mycobacterium smegmatis MC2 155 by broth dilution method; type: functional
[2] = tested on: Mycobacterium tuberculosis; assay: Antimycobacterial activity against Mycobacterium tuberculosis H37Ra; type: functional
[3] = tested on: Mycolicibacterium smegmatis; assay: Antimycobacterial activity against Mycobacterium smegmatis; type: functional
[4] = tested on: Mycobacterium tuberculosis; assay: Antimycobacterial activity against Mycobacterium tuberculosis H37Rv ATCC 27294 by Alamar Blue staining-based broth microdilution assay; type: functional
[5] = tested on: Mycobacterium tuberculosis; assay: Antimycobacterial activity against Mycobacterium tuberculosis H37Rv by Alamar Blue assay; type: functional
[6] = tested on: Mycobacterium tuberculosis; assay: Antimycobacterial activity against Mycobacterium tuberculosis H37Rv by broth dilution method; type: functional
[7] = Inhibition of Mycobacterium PknG
[8] = tested on: Mycobacterium tuberculosis; assay: Antimycobacterial activity against Mycobacterium tuberculosis H37Rv; type: functional, organism-based
[9] = target: T1, Enoyl-[acyl-carrier-protein] reductase [NADH] (Mycobacterium tuberculosis) (UniProt P9WGR1); assay: Inhibition of Mycobacterium tuberculosis InhA enzyme at 10 uM relative to control
T1 sequence (whole entry): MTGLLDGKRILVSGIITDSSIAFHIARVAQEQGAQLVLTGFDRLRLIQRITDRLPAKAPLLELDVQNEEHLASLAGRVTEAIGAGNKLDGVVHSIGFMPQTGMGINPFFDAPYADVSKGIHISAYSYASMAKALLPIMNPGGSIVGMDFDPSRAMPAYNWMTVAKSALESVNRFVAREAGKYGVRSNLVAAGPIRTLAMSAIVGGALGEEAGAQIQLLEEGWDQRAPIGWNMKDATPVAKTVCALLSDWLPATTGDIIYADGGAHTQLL

[10] = target: T2, Phosphotyrosine protein phosphatase (Mycobacterium tuberculosis, UniProt A0A045ISB3); assay: Inhibition of Mycobacterium tuberculosis Protein Tyrosine Phosphatase B
T2 sequence (A0A045ISB3 whole entry): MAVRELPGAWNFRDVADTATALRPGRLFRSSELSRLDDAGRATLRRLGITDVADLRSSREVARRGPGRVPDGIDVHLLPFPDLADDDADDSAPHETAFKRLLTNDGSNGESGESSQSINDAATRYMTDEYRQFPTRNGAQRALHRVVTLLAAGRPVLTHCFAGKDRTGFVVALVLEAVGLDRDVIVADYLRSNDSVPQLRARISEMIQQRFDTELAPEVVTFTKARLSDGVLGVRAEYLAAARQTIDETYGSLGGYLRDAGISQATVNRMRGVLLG

[11] = tested on: Mycobacterium tuberculosis; assay: Antimycobacterial activity against Mycobacterium tuberculosis incubated for overnight by NCCLS broth dilution method; type: functional
[12] = tested on: Mycobacterium tuberculosis; assay: Antimycobacterial activity against Mycobacterium tuberculosis H37Rv assessed as inhibition of mycobacterial growth at 12 ug/ml relative to control; type: functional
[13] = tested on: Mycobacterium tuberculosis; assay: Antimycobacterial activity against Mycobacterium tuberculosis assessed as diameter of inhibition zone at 40 ug/disc; type: functional; settings: read-out: IZ

`C/C=C/C[C@@H]1NC(=O)[C@H](CC(C)C)N2C(=O)[C@H](C[C@H](C)[C@H]2O)N(C)C(=O)[C@H](C)NC(=O)[C@H](Cc2ccc(O)c([N+](=O)[O-])c2)NC(=O)[C@H](CC(C)C)N(C)C(=O)[C@H](Cc2cn(C(C)(C)[C@H]3CO3)c3ccccc23)NC1=O` gave an MIC [1] of 0.12 µM (≈ 0.125 µg/mL).
`C1=C2CCCC/C=C\C=C\CCN3CC[C@@H]4[C@H](CCCCCC/C=C\C=C/CCN(C2)C[C@H]14)C3` (relative stereo) [HALICYCLAMINE A] showed an MIC [2] of 2.16 to 10.8 µM (≈ 1 to 5.01 µg/mL) and an MIC [3] of 2.16 to 10.8 µM (≈ 1 to 5.01 µg/mL).
For `CCCCCCC[C@@H]1C[C@@H]2CCC3=C(C(=O)OC(C)CCCCCC[C@@H]4C[C@@H]5CC[C@@H]6C[C@H](C)NC(=N4)N65)C(C)N=C(N1)N32` (stereo not given in full), the MIC [4] was 5.23 µM (≈ 3.18 µg/mL).
In the case of `C[C@@H]1C[C@H](C)C(=O)/C=C/[C@@H]2[C@@H](O)[C@H]3OC4=C(C(=O)O[C@@]42C[C@H]3C)C1=O` (stereo in doubt; (-)-145), the MIC ([5]; Mycobacterium tuberculosis, H37Rv, read-out: MIC) was 3.6 µM (≈ 1.25 µg/mL).
With `C=CC(C)(C)n1cc(C[C@@H]2NC(=O)[C@H](C/C=C/C)NC(=O)[C@H](CC(C)C)N3C(=O)[C@H](C[C@H](C)[C@H]3O)N(C)C(=O)[C@H](C)NC(=O)[C@H](Cc3ccc(O)c([N+](=O)[O-])c3)NC(=O)[C@H](CC(C)C)N(C)C2=O)c2ccccc21` the MIC [6] was 0.0098 µM (≈ 0.0101 µg/mL).
`CC[C@H](C)/C=C(C)/C=C/C1=CC2=C(Cl)C(=O)[C@](C)(OC(C)=O)C(=O)C2=CO1` [SCLEROTIORIN] gave a pIC50 [7] of 4.12.
`CCCCCCCc1cc(O)c(CCCCCC)c(=O)o1` [PSEUDOPYRONINES B] showed an MIC [8] of 2.65 to 5.31 µM (≈ 0.78 to 1.56 µg/mL) and an inhibition [9] of 12%.
Compound `CC(=O)c1cc(C)c(O)c(CC2=C(C)C(=O)C(O)=C(C)C2=O)c1O` has a pIC50 [10] of 5.86.
`C=CC(C)(C)n1cc(C[C@@H]2NC(=O)[C@H](C/C=C/C)NC(=O)[C@H](CC(C)C)N3C(=O)[C@H](C[C@H](C)[C@@H]3O)N(C)C(=O)[C@H](C)NC(=O)[C@H](Cc3ccc(O)c([N+](=O)[O-])c3)NC(=O)[C@H](CC(C)C)N(C)C2=O)c2ccccc21` showed an MIC [6] of 0.0098 µM (≈ 0.0101 µg/mL).
With `CC(=O)c1cc(C)c(O)c(Cc2c(O)cc(-c3ccc(O)c(O)c3)oc2=O)c1O` the pIC50 [10] was 6.80.
In the case of `C[C@@H]1C[C@H](C)C(=O)/C=C/[C@@H]2[C@@H](O)[C@H]3OC4=C(C(=O)O[C@@]42C[C@H]3C)C1=O` (stereo in doubt; (+)-145), the MIC [5] was 7.2 µM (≈ 2.49 µg/mL).
With `CN1C(=O)[C@]23CC4=CC=C[C@H](O)[C@H]4N2C(=O)[C@@]1(CO)SS3` [GLIOTOXIN] the MIC [11] was < 0.03 µM.
`CCC(C)C(=O)N[C@H](Cc1ccccc1)C(=O)NC1C(=O)N[C@H](CC(C)C)C(=O)N[C@H](Cc2ccccc2)C(=O)N[C@H](CC(C)C)C(=O)N[C@H]([C@H](C)O)C(=O)N[C@@H](CO)C(=O)O[C@@H]1C` (stereo not given in full) gave an inhibition at 12 µg/mL [12] of 83%.
Work on `C/C=C1\NC(=O)[C@H](Cc2ccccc2)NC(=O)[C@@H](C(C)C)NC(=O)[C@@H]([C@@H](C)CC)NC(=O)[C@H](NC(=O)[C@H](NC(=O)[C@H](CCCN)NC(=O)[C@H]2CCCN2C(=O)[C@H](NC(=O)[C@@H](NC(=O)[C@@H](NC(=O)[C@H](NC(=O)CCCC(C)C)C(C)C)[C@@H](C)O)C(C)C)C(C)C)[C@@H](C)CC)[C@@H](C)OC(=O)[C@H](C(C)C)NC1=O` yielded an inhibition at 12 µg/mL [12] of 67%.
For `CCCCCC(=O)c1c(O)cc(CCCCC)oc1=O`, the MIC [8] was 2.79 µM (≈ 0.782 µg/mL) and the inhibition [9] was 68%.
With `COc1cc(OC)c2c(O)c3c(=O)cc(C)oc3c(-c3c4cc(O)cc(OC)c4c(O)c4c(=O)cc(C)oc34)c2c1` the zone of inhibition at 40 µg/disc [13] was 11 mm.
Work on `C/C=C/C[C@@H]1NC(=O)[C@H](CC(C)C)N2C(=O)[C@H](C[C@H](C)[C@@H]2O)N(C)C(=O)[C@H](C)NC(=O)[C@H](Cc2ccc(O)c([N+](=O)[O-])c2)NC(=O)[C@H](CC(C)C)N(C)C(=O)[C@H](Cc2cn(C(C)(C)[C@H]3CO3)c3ccccc23)NC1=O` yielded an MIC [1] of 0.12 µM (≈ 0.125 µg/mL).
